{
  "source": "patent US7531581B2",
  "about": "“Method and use of acidified modified polymers to bind biocides in paints” (I-Tech AB, priority 2005, dated 2009)",
  "origin": "cited, not measured here",
  "data": [
    {"system": "barnacles", "conditions": "serotonin antagonists and dopamine agonists", "values": [
      {"smiles": "CC(C)C[C@H]1C(=O)N2CCC[C@H]2[C@]2(O)O[C@](NC(=O)[C@@H]3C=C4c5cccc6[nH]c(Br)c(c56)C[C@H]4N(C)C3)(C(C)C)C(=O)N12", "note": "[(+)-Bromocriptine]", "effect on attachment of barnacles": "inhibitory properties"},
      {"smiles": "O=C(c1ccc(F)cc1)C1CCN(CCn2c(=O)[nH]c3ccccc3c2=O)CC1", "note": "[Ketanserin]", "effect on attachment of barnacles": "inhibitory properties"},
      {"smiles": "CCCN1CCc2cccc3c2[C@H]1Cc1ccc(O)c(O)c1-3", "note": "[R (−)-NPA]", "effect on attachment of barnacles": "inhibitory properties"}
    ]}
  ]
}
